Series [1] in a line: Electrochemical generation of H+ or OH- ions at indium tin oxide electrode surfaces (cyclic voltammetry). The format is physicochemical. The text has this: FIG. 7B: Cyclic voltammetric study of the oxidation of Ascorbic acid test in ITO electrodes. Current increase around 0.25V indicates the start of oxidation at ITO electrodes.
Electrode material used: The electrode material was indium tin oxide. This is a semiconducting electrode surface with very large potential window in an aqueous solution.
Oxidation of ascorbic acid at the electrode surfaces produced H^+ ions and changed the electrode surface pH to a more acidic state:
The electrode potential at which it oxidizes was less than 0.5V for Indium tin oxide material vs Ag/AgCl reference electrode (as shown in FIG. 7). This potential was less than the voltages needed for the oxygen evolution reaction in aqueous solution. The ascorbic acid also acted as a sacrificial species to prevent electrochemical degradation of the surface chemistry.
Reduction of benzoquinone (C6H4O2) into Hydroquinone (C6H6O2) can produce OH^− ions at −0.1V: […]

Series [2] deals with Green Fluorescent Protein (GFP) (Aequorea victoria, UniProt P42212). The series is described as follows: Effect of benzoquinone substitution on protein (GFP) stability, by fluorescence intensity. Particulars: incubation 30 min in phosphate buffered saline, concentration of benzoquinones 0.5 mM. The format is biochemical. The text has this:
Para-benzoquinones and ortho-benzoquinones (compounds 2, 4, 6, and 9 in FIG. 31) are susceptible to nucleophilic attack at the double bond of the ring (positions 2, 3, 5 and 6 in structure 2 of FIG. 31, positions 3, 4, 5 and 6 in structure 4 of FIG. 31, and positions 2 and 3 in structure 6 of FIG. 31). Introducing substituents at some or all of those positions can mitigate the problem of nucleophilic attack. For example, 1,4-benzoquinone (structure 2 in FIG. 31, where R1, R2, R3 and R4 are H) undergoes Michael addition reaction with amino groups of proteins (Loomis et al., Phytochemistry, 5, 423, (1966) and U.S. Pat. No. 6,753,312 B2). […] Fluorescence intensity of Green Fluorescent Protein (GFP) was measured after incubation with three different benzoquinones in phosphate buffered saline for 30 min (concentration of benzoquinones was 0.5 mM). The difference in fluorescence intensity indicates the varied effect that the different substitutions in benzoquinones have on the stability of GFP. Fluorescence intensity of GFP is indicative of its structural integrity. Losses in fluorescence intensity usually indicate loss of its tertiary structure (protein denaturation) (Yin D. X., Zhu L., Schimke R. T. Anal. Biochem. 1996, 235:195-201).

As for `O=C1O[C@H]([C@@H](O)CO)C(O)=C1O` [ascorbic acid], the “electrode potential at which it oxidizes” value in series [1] (Indium tin oxide material vs Ag/AgCl reference electrode) is “less than 0.5 V”. In series [1] (cyclic voltammetric study at ITO electrodes), the “start of oxidation (current increase)” value is “around 0.25 V”.

With `O=C1C=CC(=O)C=C1` [unsubstituted benzoquinone, 1,4-benzoquinone], the “loss in GFP fluorescence intensity after incubation” value in series [2] is reported as 25%. Further, in series [1] (electro-reduction at indium tin oxide electrode), the “potential of reduction into Hydroquinone producing OH- ions” value is −0.1 V.
